In the assay the test system is NO production in BV-2 cells [NO 생성; BV-2 세포]. The assay can be described thus: Nitric oxide (NO) quantification (nitrite, Griess reaction) in LPS-activated BV-2 cells. The following applies: LPS 0.2 ㎍/mL, 24 h co-treatment, nitrite by Griess at 540 nm. It is filed as cell-based.
Where [1] appears, read: Mus musculus, BV-2, 24 h, 20 μM.

For `CSc1nc(NCCO)c2cnn(C)c2n1` [12e, 1-메틸-4-(1-하이드록시에틸)아미노-6-(메틸티오)피라졸로[3,4-d]피리미딘], the activity at 20 µM under setting [1] was determined as 91 ± 2%.
On the same count and under the same terms, to `CSc1nc(NCc2ccc(F)cc2)c2cnn(C)c2n1` [12f, 1-메틸-4-(4-플루오로벤질)아미노-6-(메틸티오)피라졸로[3,4-d]피리미딘] belongs 72 ± 2%; to `CSc1nc(NCCc2ccccc2)c2cnn(C)c2n1` [12g, 1-메틸-4-(2-페닐에틸)아미노-6-(메틸티오)피라졸로[3,4-d]피리미딘], 92 ± 1%; to `COc1ccc(CNc2nc(SC)nc3c2cnn3C)cc1` [12h, 1-메틸-4-(4-메톡시벤질)아미노-6-(메틸티오)피라졸로[3,4-d]피리미딘], 33 ± 10%.
Take `CCCCNc1nc(NC(C)c2ccccc2)c2cnn(Cc3ccccc3)c2n1` (centres unmarked) [24i, 1-벤질-N6-뷰틸-N4-(1-페닐에틸)-1H-피라졸로[3,4-d]피리미딘-4,6-디아민]: for the setting “20 μM, 1440 min”, the “NO (% of LPS)” value is given as 42±0.8 % of LPS.
As for `CSc1nc(NCc2ccccc2)c2c(-c3ccccc3)nn(Cc3ccccc3)c2n1` [32a, 1-벤질-3-페닐-4-벤질아미노-6-(메틸티오)피라졸로[3,4-d]피리미딘], under setting [1], the activity at 20 µM was determined as 53 ± 3%.
On the same count and under the same terms, next, `CSc1nc(NCc2ccc(F)cc2)c2c(-c3ccccc3)nn(Cc3ccccc3)c2n1` [32c, 1-벤질-3-페닐-4-(4-플루오로벤질)아미노-6-(메틸티오)피라졸로[3,4-d]피리미딘]: 69 ± 8%.
Same read-out and setting: next, `C=CCNc1nc(SC)nc2c1c(-c1ccccc1)nn2Cc1ccccc1` [32d, 1-벤질-3-페닐-4-알릴아미노-6-(메틸티오)피라졸로[3,4-d]피리미딘]: 46 ± 2%.
As for `CSc1nc(Cl)c2cn[nH]c2n1` [compound 4, 4-클로로-6-(메틸티오)피라졸로[3,4-d]피리미딘], for the setting “Mus musculus, BV-2, 24 h, 30 μM”, the activity at 30 µM turned out to be 19 ± 4.1%.
As for `CSc1nc(Cl)c(C(=O)c2ccccc2)c(Cl)n1` [compound 29, 1-[(4,6-다이클로로-2-(메틸티오)피리미딘)-5-일]-페닐케톤], the activity at 20 µM under setting [1] came to 35 ± 12%.
As for `C=CCNc1nc(SC)nc2c1cnn2C` [화합물 12i, 1-메틸-4-알릴아미노-6-(메틸티오)피라졸로[3,4-d]피리미딘], the activity at 20 µM under setting [1] is 101 ± 3%.
Regarding `COc1ccccc1CNc1nc(SC)nc2c1cnn2C` [화합물 12j, 1-메틸-4-(2-메톡시벤질)아미노-6-(메틸티오)피라졸로[3,4-d]피리미딘], under setting [1], the activity at 20 µM was 40 ± 5%.
On to `COc1cccc(CNc2nc(SC)nc3c2cnn3C)c1` [화합물 12k, 1-메틸-4-(3-메톡시벤질)아미노-6-(메틸티오)피라졸로[3,4-d]피리미딘], for which the activity at 20 µM under setting [1] worked out at 94 ± 5%.
On the same count and under the same terms, to `CSc1nc(NCc2ccccc2C)c2cnn(C)c2n1` [화합물 12l, 1-메틸-4-(2-메틸벤질)아미노-6-(메틸티오)피라졸로[3,4-d]피리미딘] belongs 69%; to `CSc1nc(NCc2ccc(Cl)cc2)c2cnn(C)c2n1` [화합물 12m, 1-메틸-4-(4-클로로벤질)아미노-6-(메틸티오)피라졸로[3,4-d]피리미딘], 53 ± 6%; to `CSc1nc(NC(C)c2ccccc2)c2cnn(C)c2n1` (centres unmarked) [화합물 12o, 1-메틸-6-(메틸티오)-N-(1-페닐에틸)-1H-피라졸로[3,4-d]피리미딘-4-아민], 70 ± 5%.
Same read-out and setting: next, `C=CCn1ncc2c(NCc3ccccc3)nc(SC)nc21` [화합물 13a, 1-알릴-4-벤질아미노-6-(메틸티오)피라졸로[3,4-d]피리미딘]: 15 ± 25%; `C=CCNc1nc(SC)nc2c1cnn2CC=C` [화합물 13b, 1-알릴-4-알릴아미노-6-(메틸티오)피라졸로[3,4-d]피리미딘]: 86 ± 9%; `C=CCn1ncc2c(NCCO)nc(SC)nc21` [화합물 13c, 1-알릴-4-(1-하이드록시에틸)아미노-6-(메틸티오)피라졸로[3,4-d]피리미딘]: 77 ± 7%.
Still for that read-out and setting: next, `C=CCn1ncc2c(NCc3ccc(F)cc3)nc(SC)nc21` [화합물 13d, 1-알릴-4-(4-플루오로벤질)아미노-6-(메틸티오)피라졸로[3,4-d]피리미딘]: 14 ± 39%; `C=CCn1ncc2c(NCc3ccccc3OC)nc(SC)nc21` [화합물 13e, N-(2-메톡시벤질)-1-알릴-6-(메틸티오)-1H-피라졸로[3,4-d]피리미딘-4-아민]: 22.4 ± 0.4%.
In the case of `C=CCn1ncc2c(NCc3ccc(Cl)cc3)nc(SC)nc21` [화합물 13f, N-(4-클로로벤질)-1-알릴-6-(메틸티오)-1H-피라졸로[3,4-d]피리미딘-4-아민], under setting [1], the activity at 20 µM was 11 ± 2.9%.
On the same count and under the same terms, to `C=CCn1ncc2c(NCc3ccc(C)cc3)nc(SC)nc21` [화합물 13g, N-(4-메틸벤질)-1-알릴-6-(메틸티오)-1H-피라졸로[3,4-d]피리미딘-4-아민] belongs 12.2 ± 3.8%; to `C=CCn1ncc2c(NCc3ccccc3C)nc(SC)nc21` [화합물 13h, N-(2-메틸벤질)-1-알릴-6-(메틸티오)-1H-피라졸로[3,4-d]피리미딘-4-아민], 25 ± 0.3%.
In the case of `C=CCn1ncc2c(NC(C)c3ccccc3)nc(SC)nc21` (centres unmarked) [화합물 13i, 1-알릴-6-(메틸티오)-N-(1-페닐에틸)-1H-피라졸로[3,4-d]피리미딘-4-아민], under setting [1], the activity at 20 µM was 9.5 ± 3.8%.
Take `C=CCn1ncc2c(NCc3cccc(OC)c3)nc(SC)nc21` [화합물 13j, N-(3-메톡시벤질)-1-알릴-6-(메틸티오)-1H-피라졸로[3,4-d]피리미딘-4-아민]: the activity at 20 µM under setting [1] stood at 87 ± 0.2%.
Still for that read-out and setting: to `C=CCn1ncc2c(NC(C)(C)CO)nc(SC)nc21` [화합물 13k, 2-(1-알릴-6-(메틸티오)-1H-피라졸로[3,4-d]피리미딘-4-일아미노)-2-메틸프로판-1-올] belongs 15.9 ± 0.6%; to `C=CCn1ncc2c(NCCCC)nc(SC)nc21` [화합물 13l, 1-알릴-N-뷰틸-6-(메틸티오)-1H-피라졸로[3,4-d]피리미딘-4-아민], 43.3 ± 1.1%.
As to `C=CCn1ncc2c(NCc3ccc(OC)cc3)nc(SC)nc21` [화합물 13m, N-(4-메톡시벤질)-1-알릴-6-(메틸티오)-1H-피라졸로[3,4-d]피리미딘-4-아민], under setting [1], the activity at 20 µM stood at 8.6 ± 2.7%.
`C=CCn1ncc2c(NCc3ccccn3)nc(SC)nc21` [화합물 13n, 1-알릴-6-(메틸티오)-N-((피리딘-2-일)메틸)-1H-피라졸로[3,4-d]피리미딘-4-아민]: under setting [1], the activity at 20 µM was 17.6 ± 0.7%.
Consider `C=CCn1ncc2c(NCc3ccccc3Cl)nc(SC)nc21` [화합물 13o, N-(2-클로로벤질)-1-알릴-6-(메틸티오)-1H-피라졸로[3,4-d]피리미딘-4-아민], for which the activity at 20 µM under setting [1] was 17.5 ± 1.5%.
The same measure, in the same setting: next, `CSc1nc(NCc2ccccc2)c2cnn(CCNC(=O)OC(C)(C)C)c2n1` [화합물 14a, 1-(N-t-Boc-아미노에틸)-4-벤질아미노-6-(메틸티오)피라졸로[3,4-d]피리미딘]: 58 ± 6%; `COc1ccccc1CNc1nc(SC)nc2c1cnn2CCNC(=O)OC(C)(C)C` [화합물 14c, 1-(N-t-Boc-아미노에틸)-4-(2-메톡시벤질)아미노-6-(메틸티오)피라졸로[3,4-d]피리미딘]: 54 ± 5%; `COc1cccc(CNc2nc(SC)nc3c2cnn3CCNC(=O)OC(C)(C)C)c1` [화합물 14d, 1-(N-t-Boc-아미노에틸)-4-(3-메톡시벤질)아미노-6-(메틸티오)피라졸로[3,4-d]피리미딘]: 49 ± 12%.
On the same count and under the same terms, to `CSc1nc(NCc2ccc(Cl)cc2)c2cnn(CCNC(=O)OC(C)(C)C)c2n1` [화합물 14e, 2-(4-(4-클로로벤질아미노)-6-(메틸티오)-1H-피라졸로[3,4-d]피리미딘-1-일)에틸카바메이트] belongs 26.8 ± 0.1%.
Still for that read-out and setting: next, `CSc1nc(NC(C)(C)CO)c2cnn(CCNC(=O)OC(C)(C)C)c2n1` [화합물 14h, 2-(4-(1-하이드록시-2-메틸프로판-2-일아미노)-6-(메틸티오)-1H-피라졸로[3,4-d]피리미딘-1-일)에틸카바메이트]: 78.9 ± 1.6%.
In the case of `CCCCNc1nc(SC)nc2c1cnn2CCNC(=O)OC(C)(C)C` [화합물 14i, 2-(4-(뷰틸아미노)-6-(메틸티오)-1H-피라졸로[3,4-d]피리미딘-1-일)에틸카바메이트], the activity at 20 µM under setting [1] was 54.2 ± 2.3%.
The same measure, in the same setting: to `COc1ccc(CNc2nc(SC)nc3c2cnn3CCNC(=O)OC(C)(C)C)cc1` [화합물 14j, 2-(4-(4-메톡시벤질아미노)-6-(메틸티오)-1H-피라졸로[3,4-d]피리미딘-1-일)에틸카바메이트] belongs 25.8 ± 3%.
Still for that read-out and setting: next, `CSc1nc(NCc2ccccn2)c2cnn(CCNC(=O)OC(C)(C)C)c2n1` [화합물 14k, 2-(4-((피리딘-2-일)메틸아미노)-6-(메틸티오)-1H-피라졸로[3,4-d]피리미딘-1-일)에틸카바메이트]: 61 ± 0.8%; `CSc1nc(NCc2ccccc2Cl)c2cnn(CCNC(=O)OC(C)(C)C)c2n1` [화합물 14l, 2-(4-(2-클로로벤질아미노)-6-(메틸티오)-1H-피라졸로[3,4-d]피리미딘-1-일)에틸카바메이트]: 24.2 ± 1.7%.
Same read-out and setting: to `CSc1nc(NCc2ccccc2)c2cnn(-c3ccccc3)c2n1` [화합물 15a, 1-페닐-4-벤질아미노-6-(메틸티오)피라졸로[3,4-d]피리미딘] belongs 53 ± 12%.
As for `CSc1nc(NCCc2ccccc2)c2cnn(-c3ccccc3)c2n1` [화합물 15b, 1-페닐-4-(2-페닐에틸)아미노-6-(메틸티오)피라졸로[3,4-d]피리미딘], the activity at 20 µM under setting [1] is 72 ± 8%.
Same read-out and setting: next, `COc1ccc(CNc2nc(SC)nc3c2cnn3-c2ccccc2)cc1` [화합물 15c, 1-페닐-4-(4-메톡시벤질)아미노-6-(메틸티오)피라졸로[3,4-d]피리미딘]: 61 ± 6%; `CSc1nc(NCCO)c2cnn(-c3ccccc3)c2n1` [화합물 15d, 1-페닐-4-(1-하이드록식에틸)아미노-6-(메틸티오)피라졸로[3,4-d]피리미딘]: 68 ± 7%.
The same measure, in the same setting: next, `CSc1nc(NCc2ccc(F)cc2)c2cnn(-c3ccccc3)c2n1` [화합물 15e, 1-페닐-4-(4-플루오로벤질)아미노-6-(메틸티오)피라졸로[3,4-d]피리미딘]: 46 ± 10%; `C=CCNc1nc(SC)nc2c1cnn2-c1ccccc1` [화합물 15f, 1-페닐-4-알릴아미노-6-(메틸티오)피라졸로[3,4-d]피리미딘]: 60 ± 17%; `CSc1nc(NCCN2CCCCC2)c2cnn(-c3ccccc3)c2n1` [화합물 15g, 1-페닐-4-[2-(피페리딘-1-일)]에틸아미노-6-(메틸티오)피라졸로[3,4-d]피리미딘]: 64 ± 7%.
On the same count and under the same terms, to `CSc1nc(N[C@H](C)c2ccccc2)c2cnn(-c3ccccc3)c2n1` [화합물 15h, (R)-1-페닐-4-(1-페닐에틸)아미노-6-(메틸티오)피라졸로[3,4-d]피리미딘] belongs 29 ± 4.6%.
Turning to `CSc1nc(N(CCO)CCO)c2cnn(-c3ccccc3)c2n1` [화합물 15i, 1-페닐-4-비스(1-하이드록시에틸)아미노-6-(메틸티오)피라졸로[3,4-d]피리미딘], under setting [1], the activity at 20 µM stood at 90 ± 3%.
The same measure, in the same setting: next, `CSc1nc(NCc2ccccn2)c2cnn(-c3ccccc3)c2n1` [화합물 15j, 1-페닐-4-[(피리딘-2-일)메틸]아미노-6-(메틸티오)피라졸로[3,4-d]피리미딘]: 30 ± 14%.
Still for that read-out and setting: to `CSc1nc(NC(C)(C)CO)c2cnn(-c3ccccc3)c2n1` [화합물 15k, 1-페닐-4-[(1-하이드록시-2,2-다이메틸)에틸]아미노-6-(메틸티오)피라졸로[3,4-d]피리미딘] belongs 70 ± 3%.
Same read-out and setting: next, `COc1cccc(CNc2nc(SC)nc3c2cnn3-c2ccccc2)c1` [화합물 15l, 1-페닐-4-(3-메톡시벤질)아미노-6-(메틸티오)피라졸로[3,4-d]피리미딘]: 50 ± 9%.
For the compound `CSc1nc(N2CCCCC2)c2cnn(-c3ccccc3)c2n1` [화합물 15m, 1-페닐-4-피페리디노-6-(메틸티오)피라졸로[3,4-d]피리미딘], under setting [1], the activity at 20 µM was found to be 92 ± 4%.

(Values after patent KR20130112248A, “피라졸로피리미딘 유도체 화합물, 이를 포함하는 산화질소 생성 억제용 조성물 및 뇌신경 질환 예방 및 치료용 약학적 조성물” (한국과학기술연구원, priority 2012, dated 2013).)
